Measured values reported in ChEMBL document CHEMBL2177025, “Chemical proteomics-based analysis of off-target binding profiles for rosiglitazone and pioglitazone: clues for assessing potential for cardiotoxicity” (J Med Chem, 2012).
Activity calls are given as the source filed them.

Tests used:
[1] = target: Short-chain specific acyl-CoA dehydrogenase, mitochondrial (Rattus norvegicus) (UniProt P15651); assay: Binding affinity to mitochondrial short-chain specific acyl-CoA dehydrogenase in Sprague-Dawley rat heart homogenate after 15 mins by chromatographic analysis; assay type: tissue-based
[2] = target: T1, Long-chain specific acyl-CoA dehydrogenase, mitochondrial (Rattus norvegicus) (UniProt P15650); assay: Binding affinity to mitochondrial long-chain specific acyl-CoA dehydrogenase in Sprague-Dawley rat heart homogenate after 15 mins by chromatographic analysis relative to rosiglitazone; assay type: tissue-based
T1 sequence (whole entry): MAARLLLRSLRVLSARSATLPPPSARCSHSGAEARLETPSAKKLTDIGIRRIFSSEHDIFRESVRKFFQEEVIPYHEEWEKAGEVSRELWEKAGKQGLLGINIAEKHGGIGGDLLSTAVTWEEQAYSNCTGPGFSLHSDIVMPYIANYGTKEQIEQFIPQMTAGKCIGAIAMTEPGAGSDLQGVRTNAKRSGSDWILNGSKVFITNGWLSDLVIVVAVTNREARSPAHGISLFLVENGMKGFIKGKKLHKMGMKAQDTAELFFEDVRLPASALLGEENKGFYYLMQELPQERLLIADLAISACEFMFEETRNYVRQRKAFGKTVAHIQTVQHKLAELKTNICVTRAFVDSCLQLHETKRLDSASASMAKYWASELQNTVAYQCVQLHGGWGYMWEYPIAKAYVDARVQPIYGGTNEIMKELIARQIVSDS

[3] = target: Dihydrolipoyllysine-residue succinyltransferase component of 2-oxoglutarate dehydrogenase complex, mitochondrial (Mus musculus) (UniProt Q9D2G2); assay: Binding affinity to mouse mitochondrial dihydrolipoyllysine-residue succinyltransferase component of 2-oxoglutarate dehydrogenase complex by chromatographic analysis
[4] = target: Hydroxyacyl-coenzyme A dehydrogenase, mitochondrial (Rattus norvegicus) (UniProt Q9WVK7); assay: Binding affinity to mitochondrial short-chain L-3-hydroxyacyl-coenzyme A dehydrogenase in Sprague-Dawley rat heart homogenate after 15 mins by chromatographic analysis; assay type: tissue-based
[5] = target: L-lactate dehydrogenase B chain (Rattus norvegicus) (UniProt P42123); assay: Binding affinity to L-lactate dehydrogenase B chain in Sprague-Dawley rat heart homogenate after 15 mins by chromatographic analysis relative to rosiglitazone; assay type: tissue-based
[6] = target: Glyceraldehyde-3-phosphate dehydrogenase (Rattus norvegicus) (UniProt P04797); assay: Binding affinity to glyceraldehyde 3-phosphate dehydrogenase in Sprague-Dawley rat heart homogenate after 15 mins by chromatographic analysis; assay type: tissue-based
[7] = target: L-lactate dehydrogenase A chain (Rattus norvegicus) (UniProt P04642); assay: Binding affinity to L-lactate dehydrogenase A chain in Sprague-Dawley rat heart homogenate after 15 mins by chromatographic analysis; assay type: tissue-based
[8] = target: 2-oxoglutarate dehydrogenase complex component E1 (Mus musculus) (UniProt Q60597); assay: Binding affinity to mouse mitochondrial 2-oxoglutarate dehydrogenase E1 component by chromatographic analysis
[9] = target: Malate dehydrogenase, cytoplasmic (Mus musculus) (UniProt P14152); assay: Binding affinity to mouse cytoplasmic malate dehydrogenase by chromatographic analysis
[10] = target: Malate dehydrogenase, mitochondrial (Rattus norvegicus) (UniProt P04636); assay: Binding affinity to mitochondrial malate dehydrogenase in Sprague-Dawley rat heart homogenate after 15 mins by chromatographic analysis; assay type: tissue-based
[11] = target: Very long-chain specific acyl-CoA dehydrogenase, mitochondrial (Rattus norvegicus) (UniProt P45953); assay: Binding affinity to mitochondrial very long-chain specific acyl-CoA dehydrogenase in Sprague-Dawley rat heart homogenate after 15 mins by chromatographic analysis; assay type: tissue-based
[12] = target: Glutamate dehydrogenase 1, mitochondrial (Rattus norvegicus) (UniProt P10860); assay: Binding affinity to mitochondrial glutamate dehydrogenase 1 in Sprague-Dawley rat heart homogenate after 15 mins by chromatographic analysis; assay type: tissue-based
[13] = target: Medium-chain specific acyl-CoA dehydrogenase, mitochondrial (Rattus norvegicus) (UniProt P08503); assay: Binding affinity to mitochondrial medium-chain specific acyl-CoA dehydrogenase in Sprague-Dawley rat heart homogenate after 15 mins by chromatographic analysis; assay type: tissue-based
[14] = target: Isocitrate dehydrogenase [NADP], mitochondrial (Mus musculus) (UniProt P54071); assay: Binding affinity to mouse mitochondrial isocitrate dehydrogenase by chromatographic analysis
[15] = target: T2, Dihydrolipoyl dehydrogenase, mitochondrial (Mus musculus) (UniProt O08749); assay: Binding affinity to mouse mitochondrial dihydrolipoyl dehydrogenase by chromatographic analysis relative to rosiglitazone
T2 sequence (whole entry): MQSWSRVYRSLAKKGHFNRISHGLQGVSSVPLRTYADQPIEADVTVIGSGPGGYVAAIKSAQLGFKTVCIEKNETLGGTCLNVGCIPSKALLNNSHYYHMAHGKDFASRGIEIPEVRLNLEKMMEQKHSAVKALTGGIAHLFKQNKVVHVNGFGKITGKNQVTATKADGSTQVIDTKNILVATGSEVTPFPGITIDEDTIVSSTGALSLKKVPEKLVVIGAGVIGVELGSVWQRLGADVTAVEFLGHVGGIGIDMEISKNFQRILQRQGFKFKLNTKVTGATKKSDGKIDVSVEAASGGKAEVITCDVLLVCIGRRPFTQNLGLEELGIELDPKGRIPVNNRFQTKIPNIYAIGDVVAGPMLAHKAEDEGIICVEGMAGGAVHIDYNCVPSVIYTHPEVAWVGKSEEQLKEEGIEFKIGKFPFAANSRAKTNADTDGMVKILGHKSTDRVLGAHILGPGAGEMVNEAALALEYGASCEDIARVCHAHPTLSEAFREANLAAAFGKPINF

[16] = target: Pyruvate dehydrogenase E1 component subunit alpha, somatic form, mitochondrial (Rattus norvegicus) (UniProt P26284); assay: Binding affinity to mitochondrial pyruvate dehydrogenase E1 component subunit alpha in Sprague-Dawley rat heart homogenate after 15 mins by chromatographic analysis; assay type: tissue-based

Measured: Activity

Glutamate dehydrogenase 1, mitochondrial (Rattus norvegicus), sequence (P10860 whole entry): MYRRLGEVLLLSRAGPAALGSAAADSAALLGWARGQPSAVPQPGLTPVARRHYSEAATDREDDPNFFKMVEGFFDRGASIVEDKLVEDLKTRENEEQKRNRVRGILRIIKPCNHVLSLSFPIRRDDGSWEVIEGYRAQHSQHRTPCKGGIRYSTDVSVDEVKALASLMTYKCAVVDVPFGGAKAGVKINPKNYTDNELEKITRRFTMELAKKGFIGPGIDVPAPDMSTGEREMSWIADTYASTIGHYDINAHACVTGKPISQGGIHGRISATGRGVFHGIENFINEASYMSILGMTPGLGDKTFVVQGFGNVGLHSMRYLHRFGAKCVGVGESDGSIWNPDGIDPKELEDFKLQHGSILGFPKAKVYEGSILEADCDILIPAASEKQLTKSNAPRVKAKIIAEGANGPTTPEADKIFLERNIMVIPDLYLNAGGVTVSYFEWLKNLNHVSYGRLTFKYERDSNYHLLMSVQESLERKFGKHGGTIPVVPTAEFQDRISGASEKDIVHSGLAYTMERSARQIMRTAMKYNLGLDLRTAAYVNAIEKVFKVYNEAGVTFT
Isocitrate dehydrogenase [NADP], mitochondrial (Mus musculus), sequence (P54071 whole entry): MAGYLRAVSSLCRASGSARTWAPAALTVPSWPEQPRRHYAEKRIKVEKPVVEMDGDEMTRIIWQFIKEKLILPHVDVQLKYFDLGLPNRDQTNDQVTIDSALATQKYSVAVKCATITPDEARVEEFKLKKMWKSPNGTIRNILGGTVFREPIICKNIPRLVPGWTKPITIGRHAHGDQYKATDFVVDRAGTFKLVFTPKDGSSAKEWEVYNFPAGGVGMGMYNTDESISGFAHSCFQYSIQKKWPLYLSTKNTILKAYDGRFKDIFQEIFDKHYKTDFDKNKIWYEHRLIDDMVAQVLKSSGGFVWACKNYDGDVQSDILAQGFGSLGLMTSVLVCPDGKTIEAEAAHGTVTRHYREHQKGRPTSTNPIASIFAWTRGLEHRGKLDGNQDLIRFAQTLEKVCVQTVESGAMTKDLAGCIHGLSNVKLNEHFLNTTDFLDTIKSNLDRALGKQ
Medium-chain specific acyl-CoA dehydrogenase, mitochondrial (Rattus norvegicus), sequence (P08503 whole entry): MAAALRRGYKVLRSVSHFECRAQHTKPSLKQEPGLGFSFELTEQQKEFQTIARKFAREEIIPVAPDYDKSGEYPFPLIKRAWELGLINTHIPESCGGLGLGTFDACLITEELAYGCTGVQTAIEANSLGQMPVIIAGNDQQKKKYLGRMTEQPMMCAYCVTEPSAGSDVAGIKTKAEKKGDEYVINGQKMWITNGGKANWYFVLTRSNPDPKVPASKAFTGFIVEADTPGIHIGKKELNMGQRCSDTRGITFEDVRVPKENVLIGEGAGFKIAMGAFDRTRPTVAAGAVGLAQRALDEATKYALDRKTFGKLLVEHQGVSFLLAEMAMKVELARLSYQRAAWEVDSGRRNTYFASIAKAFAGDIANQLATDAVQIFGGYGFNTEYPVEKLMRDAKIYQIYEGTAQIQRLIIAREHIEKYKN
Malate dehydrogenase, mitochondrial (Rattus norvegicus), sequence (P04636 whole entry): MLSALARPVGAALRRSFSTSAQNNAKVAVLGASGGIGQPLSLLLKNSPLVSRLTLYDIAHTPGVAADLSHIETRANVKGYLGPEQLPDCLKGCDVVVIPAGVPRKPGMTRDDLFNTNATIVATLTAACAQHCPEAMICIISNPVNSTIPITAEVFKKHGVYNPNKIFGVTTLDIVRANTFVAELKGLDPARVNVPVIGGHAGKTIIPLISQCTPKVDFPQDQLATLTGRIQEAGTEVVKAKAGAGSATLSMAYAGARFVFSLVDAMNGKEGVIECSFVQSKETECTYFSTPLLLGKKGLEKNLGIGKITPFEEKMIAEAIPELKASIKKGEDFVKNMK
Malate dehydrogenase, cytoplasmic (Mus musculus), sequence (P14152 whole entry): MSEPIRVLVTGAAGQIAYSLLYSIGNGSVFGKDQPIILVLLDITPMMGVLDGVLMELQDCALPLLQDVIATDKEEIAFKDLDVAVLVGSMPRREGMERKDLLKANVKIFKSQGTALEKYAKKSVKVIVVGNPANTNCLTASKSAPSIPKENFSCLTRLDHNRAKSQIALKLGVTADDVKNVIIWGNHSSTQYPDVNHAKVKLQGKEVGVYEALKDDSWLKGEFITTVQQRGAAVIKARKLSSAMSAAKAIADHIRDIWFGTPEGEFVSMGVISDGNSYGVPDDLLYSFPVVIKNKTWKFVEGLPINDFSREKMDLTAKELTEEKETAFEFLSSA
Dihydrolipoyllysine-residue succinyltransferase component of 2-oxoglutarate dehydrogenase complex, mitochondrial (Mus musculus), sequence (Q9D2G2 whole entry, one chain of several): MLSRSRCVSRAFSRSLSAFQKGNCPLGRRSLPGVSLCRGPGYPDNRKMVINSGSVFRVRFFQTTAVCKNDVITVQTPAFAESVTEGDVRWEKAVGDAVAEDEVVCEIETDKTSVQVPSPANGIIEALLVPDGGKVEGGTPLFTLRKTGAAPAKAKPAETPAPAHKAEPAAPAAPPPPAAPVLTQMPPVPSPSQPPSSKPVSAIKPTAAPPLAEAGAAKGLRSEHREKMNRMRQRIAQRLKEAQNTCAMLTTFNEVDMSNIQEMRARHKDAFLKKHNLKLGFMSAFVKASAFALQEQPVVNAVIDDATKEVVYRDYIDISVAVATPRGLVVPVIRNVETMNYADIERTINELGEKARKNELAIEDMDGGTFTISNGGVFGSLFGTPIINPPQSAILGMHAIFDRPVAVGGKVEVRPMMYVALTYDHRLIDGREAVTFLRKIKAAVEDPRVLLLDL
Short-chain specific acyl-CoA dehydrogenase, mitochondrial (Rattus norvegicus), sequence (P15651 whole entry): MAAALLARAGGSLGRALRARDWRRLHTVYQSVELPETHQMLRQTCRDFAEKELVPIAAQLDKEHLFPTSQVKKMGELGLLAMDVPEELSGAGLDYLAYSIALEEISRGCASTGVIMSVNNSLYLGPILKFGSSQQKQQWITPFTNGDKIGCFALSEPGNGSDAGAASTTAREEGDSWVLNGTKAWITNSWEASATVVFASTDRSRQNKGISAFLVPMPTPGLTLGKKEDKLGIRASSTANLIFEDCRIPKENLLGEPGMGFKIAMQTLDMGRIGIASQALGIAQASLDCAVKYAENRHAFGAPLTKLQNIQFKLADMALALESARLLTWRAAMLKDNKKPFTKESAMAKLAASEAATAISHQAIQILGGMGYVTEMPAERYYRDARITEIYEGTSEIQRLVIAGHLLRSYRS
L-lactate dehydrogenase B chain (Rattus norvegicus), sequence (P42123 whole entry): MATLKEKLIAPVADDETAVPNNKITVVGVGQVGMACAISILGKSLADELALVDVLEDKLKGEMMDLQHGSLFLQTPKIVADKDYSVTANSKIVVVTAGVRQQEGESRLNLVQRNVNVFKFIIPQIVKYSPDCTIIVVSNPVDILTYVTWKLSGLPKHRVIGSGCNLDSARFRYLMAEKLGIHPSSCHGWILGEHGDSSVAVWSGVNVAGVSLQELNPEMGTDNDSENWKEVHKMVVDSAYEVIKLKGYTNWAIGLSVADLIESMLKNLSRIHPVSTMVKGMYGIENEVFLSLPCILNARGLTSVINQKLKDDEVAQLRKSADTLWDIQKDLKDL
Pyruvate dehydrogenase E1 component subunit alpha, somatic form, mitochondrial (Rattus norvegicus), sequence (P26284 whole entry): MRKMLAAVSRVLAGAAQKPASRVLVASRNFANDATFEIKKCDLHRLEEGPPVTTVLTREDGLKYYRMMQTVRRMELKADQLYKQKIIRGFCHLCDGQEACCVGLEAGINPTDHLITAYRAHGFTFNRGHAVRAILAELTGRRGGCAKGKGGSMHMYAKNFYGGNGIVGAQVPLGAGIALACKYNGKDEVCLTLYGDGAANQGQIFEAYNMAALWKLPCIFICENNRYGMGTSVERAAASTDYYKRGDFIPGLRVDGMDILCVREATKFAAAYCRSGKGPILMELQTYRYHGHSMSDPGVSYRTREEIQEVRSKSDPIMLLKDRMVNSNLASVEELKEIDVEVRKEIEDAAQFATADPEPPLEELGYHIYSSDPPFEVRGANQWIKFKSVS
Hydroxyacyl-coenzyme A dehydrogenase, mitochondrial (Rattus norvegicus), sequence (Q9WVK7 whole entry): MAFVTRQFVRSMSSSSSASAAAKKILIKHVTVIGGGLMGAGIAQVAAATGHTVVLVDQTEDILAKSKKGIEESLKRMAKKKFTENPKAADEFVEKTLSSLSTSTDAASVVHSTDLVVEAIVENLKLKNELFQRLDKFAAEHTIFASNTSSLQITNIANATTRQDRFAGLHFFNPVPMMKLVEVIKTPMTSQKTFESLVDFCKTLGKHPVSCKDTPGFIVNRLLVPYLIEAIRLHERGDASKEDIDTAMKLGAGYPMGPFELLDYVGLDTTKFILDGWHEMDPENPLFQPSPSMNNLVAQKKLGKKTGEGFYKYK
Very long-chain specific acyl-CoA dehydrogenase, mitochondrial (Rattus norvegicus), sequence (P45953 whole entry): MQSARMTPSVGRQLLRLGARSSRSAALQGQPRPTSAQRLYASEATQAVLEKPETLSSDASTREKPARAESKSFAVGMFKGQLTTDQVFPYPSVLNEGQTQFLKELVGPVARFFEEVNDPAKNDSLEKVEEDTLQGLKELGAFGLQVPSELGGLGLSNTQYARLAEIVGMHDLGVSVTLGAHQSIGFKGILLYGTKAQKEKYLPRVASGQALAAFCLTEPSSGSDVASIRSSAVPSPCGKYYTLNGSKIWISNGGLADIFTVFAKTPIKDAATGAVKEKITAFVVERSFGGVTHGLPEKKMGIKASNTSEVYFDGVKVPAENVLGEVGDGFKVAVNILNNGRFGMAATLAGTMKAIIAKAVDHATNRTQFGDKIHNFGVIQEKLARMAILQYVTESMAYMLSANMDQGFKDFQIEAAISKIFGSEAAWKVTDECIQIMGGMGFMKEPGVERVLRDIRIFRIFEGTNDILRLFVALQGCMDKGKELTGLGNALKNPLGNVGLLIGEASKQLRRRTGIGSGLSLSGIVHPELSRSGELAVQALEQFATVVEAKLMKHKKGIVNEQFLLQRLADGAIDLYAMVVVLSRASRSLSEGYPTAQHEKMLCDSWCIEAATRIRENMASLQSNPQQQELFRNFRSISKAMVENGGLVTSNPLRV

O=C1NC(=O)C(Cc2ccc(O)cc2)S1 (stereo unspecified)
active: [1] | [2] | [3] | [4] | [5] | [6] | [7] | [8] | [9] | [10] | [11] | [12] | [13] | [14] | [15] | [16]
